Where “and” joins values, the source holds several entries; their conditions need not be identical. Equal entries are not always repeated. Where two headings read alike, the source gives them in different places.
Assays:
[1] = molecular target: T1, purified PfENR (Plasmodium falciparum, UniProt Q9BH77); assay: PfENR inhibition, standard enzyme assay; type: biochemical
T1 sequence (Q9BH77 22-432): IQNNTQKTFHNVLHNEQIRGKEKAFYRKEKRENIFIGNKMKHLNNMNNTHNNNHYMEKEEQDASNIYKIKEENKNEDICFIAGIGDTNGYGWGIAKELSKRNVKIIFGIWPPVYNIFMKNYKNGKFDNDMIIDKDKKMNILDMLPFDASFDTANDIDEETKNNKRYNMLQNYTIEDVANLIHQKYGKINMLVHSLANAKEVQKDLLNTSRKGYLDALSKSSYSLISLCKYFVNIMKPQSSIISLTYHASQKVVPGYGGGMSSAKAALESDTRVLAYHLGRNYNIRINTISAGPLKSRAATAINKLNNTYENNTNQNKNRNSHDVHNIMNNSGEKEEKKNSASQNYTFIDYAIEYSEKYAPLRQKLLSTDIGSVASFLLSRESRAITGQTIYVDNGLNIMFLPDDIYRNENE
Method: (§1) PfENR activity was determined using standard assay described earlier.

[2] = system: Plasmodium falciparum 3D7; assay: In vitro inhibition of P. falciparum 3D7 blood-stage parasites; type: cell-based; conditions: for IC50: read-out: P. falciparum (IC50 μM); for Stage of parasite growth arrest / Parasites observed to be dead: 2.5 μM; for Stage of parasite growth arrest: added at ring stage, P. falciparum 3D7; for Parasites observed to be dead: synchronised ring stage culture of P. falciparum 3D7
Method: Benzothiophene carboxamide derivatives of the present invention were checked for their anti-parasitic activity against 3D7 (chloroquine sensitive strain) in an in vitro culture. […] To find out parasite stage where these compounds act, synchronised ring stage culture of P. falciparum was treated with 2.5 μM concentration of compounds 6 and 7. […] When compounds 6 and 7 were added at the trophozoite stage the cells could not proceed to the schizont stage indicating the growth inhibition occurs at trophozoite stage.
Synchronised culture of P. falciparum 3D7 was treated with 2.5 μM compound 10 and 11 at the ring stage.

[3] = system: blood-stage P. berghei ANKA; assay: Experimental cerebral malaria in C57BL/6 mice; type: in vivo; conditions: for Mean Survival Days (Observed for 25 days): 5 mg/kg body weight daily for six days, C57BL/6 mice; for Relative efficacy in the route of administration study: 5 mg/kg body weight, 6 days treatment
Method: C57BL/6 mice were infected with blood-stage P. berghei ANKA as discussed in the experimental section. After 24 hours of infection mice were treated intravenously with various doses of inhibitors. It was observed that all control mice developed hypothermia by day 2, ataxia and convulsions by day 3 and died by day 6, whereas inhibitor treated groups had considerably higher longevity (11-24 days). Though each group of mice developed hypothermia by day 4, convulsions and ataxia development were delayed in case of treated mice. […] The mice treated with 2.5 mg/kg body weight survived for 18 days. Even at or below 1 mg/kg body weight of inhibitor dose, the mice survived for 11 days, but paralysis and ataxia development occurred on Day 7.
[…]. The mice were treated for 6 days. […]. Chloroquine was used as the control drug. […].
Therefore, compounds 10 and 11 were also administered at 5 mg/Kg body weight. The compounds were administered through intraperitoneal, peroral, subcutaneous and intravenous routes. Compound 10 and 11 were administered once daily for 6 days. […]. The mean survival days for this treatment group was 16 (FIG. 12c and Table III). […]. Chloroquine was used as the control drug.

[4] = Hot plate latency test (thermal hyperalgesia); type: in vivo, rats; conditions: for MPE index, hot plate latency assay: 15 mg/kg b. wt. i.p., 30 and 60 min; for Analgesic activity compared with Ibuprofen, hot plate: compounds 15 mg/kg b. wt. vs Ibuprofen 50 mg/kg b. wt.; for Anti-nociceptive response, hot plate latency assay: known NSAIDs
Method: The animals were housed in an animal house facility of National Institute of Immunology, India, with controlled temperature (22±2° C.) under a 12/12 h light/dark cycle. They had free access to food and water ad libitum. All experiments were conducted according to the guidelines of the international association for the study of pain and approved by the institutional ethical committee for animal research. All in vivo experiments were carried out on inbred male […] rats ( 200-320 g body weight). Same age and equal body weight of animals were used according to experiments. No animals were used for more than one experiment. Most popular non-steroidal anti-inflammatory drugs which are widely use for treatment of chronic and inflammatory pain, such as Ibuprofen, Naproxen, Ketoprofen, Aspirin, Nimesulide, Indomethacine were purchased from Cayman Chemicals, USA and used to evaluate the efficacy of drugs in animal model. These drugs and different derivatives of Benzothiophene were dissolved in minimum volume of Dimethyl sulfoxide (DMSO) and further diluted in Phosphate buffer saline prior to use. […] Withdrawal latency for tail flicking was measured. […] NSAIDs is commonly evaluated by hot plate latency assay whereby animals are exposed to thermal stimulus (54 degree […] time for hind paw licking is measured as behavioural response for pain.

[5] = molecular target: T1, purified PfENR; assay: PfENR inhibition kinetics, cofactor potency and progress curve analysis; type: biochemical
Method: as §1
The accumulation of product further decreased when compound 6 was preincubated with the enzyme (curve c). On addition of NAD+ to this reaction the rate of product accumulation further decreased (curve d).
Progress curves for inhibition by varying concentrations of compounds 6 and 7 were examined in detail (FIGS. 16a and 16b). From the progress curve analyses, it was inferred that for each concentration of the inhibitors the initial and the steady state velocity decreased exponentially with time. At higher inhibitor concentration, steady state is reached rapidly with a decrease in steady state velocity (vs). […] Progress curves were analysed using equation 3a from which a series of Kobs values were obtained for each concentration of inhibitor.

[6] = Tail flick latency test; conditions: 15 mg/kg b. wt. vs Ibuprofen 50 mg/kg b. wt., 30 min and 60 min post injection
Method: Hot plate latency test was performed under red light on the metal surface of hot plate analgesia meter (IITC, Life science, CA). Animals were placed individually on the surface of hot plate maintained at a constant temperature 54±1° C. The anti-nociceptive response was latency recorded from the time when animal was placed on the heated surface until the behavior response show licking of hind paw to avoid thermal nociception. A maximum hot plate latency of 30 sec was used for each animal to prevent paw tissue damage. Base line nociceptive latency was obtained for each animal prior to any drug administration. Thereafter, groups of animals were treated with different concentration of different derivatives of benzothiophene and well known NSAIDs. […] Subsequent nociceptive response latency for each animal was determined at 30 and 60 min after drug administration. […] In continuation of tail flick latency assay, the anti-nociceptive effect of the compounds was monitored. Rats treated as described above were subjected to determination of thermal nociceptive pain. Rats were confined in restrainer and allowed to accommodate. The tail withdrawal test consisted of immersing the posterior 8-10 cm of the tail in hot water bath maintained at 54±1° C. Withdrawal latency for tail flicking was measured. A maximum tail flick latency of 20 sec was permitted to minimize tissue damage.

[7] = Mechanical hyperalgesia, Randall-Selitto, carrageenan induced; type: in vivo, rats; conditions: 15 mg/kg b wt., after 1 hrs, basal level in 5 hrs
Method: Mechanical hyperalgesia was measured as hind limb withdrawal threshold in response to a mechanical stimulus applied to hind paws of rat using Randall-selitto meter, Randall and Selitto, 1957. To determine the mechanical hyperalgesia, the force was applied with increased pressure at a constant rate until the animal withdrew its limb. The base line nociceptive threshold was measured before induction of hyperalgesia. Moreover, hyperalgesia was induced by carrageenan and then groups of animal were treated with compound 4, compound 6 and compound 8 (15 mg/kg body weight) and Ibuprofen (50 mg/kg body weight). Control group was treated with physiological saline. […] The anti-nociceptive efficacy of the compounds has been evaluated the efficacy with paw withdrawal threshold latency of animals.

[8] = system: liver stage of Plasmodium; conditions: Singh A. P. et al, IUBMB life 61, 923-928; read-out: IC50, inhibition of liver stage parasite development before invasion; cited from earlier work
[9] = read-out: Inhibition of PfENR (IC50 μM)
[10] = Erythrocyte, growth inhibition, red blood cell stages of Plasmodium falciparum 3D7 (chloroquine sensitive)
[11] = Plasmodium falciparum, 3D7, Erythrocyte

SMILES: COc1ccc(CNC(=O)c2sc3ccccc3c2Br)cc1 [Compound 5, N-(4-methoxybezyl)-3-bromobenzo[b]thiophene-2-carboxamide]
- IC50 [1, 9]: 31.99 ± 0.23 µM
- IC50 [2, 10]: 5.93 ± 0.3 µM

SMILES: C=CCN(Cc1ccc(C(F)(F)F)cc1)C(=O)c1sc2ccccc2c1Br [Compound 11, 3-bromo-N-(prop-2-en-1-yl)-N-[4-(trifluoromethyl)benzyl]-1-benzo[b]thiophene-2-carboxamide]
- IC50 [1, 9]: 52.48 ± 0.22 µM
- Mean Survival Days (Observed for 25 days) ([3]; Intraperitoneal, 5 mg/kg): 10 ± 1.2 days
- Mean Survival Days (Observed for 25 days) ([3]; Intraperitoneal, listed as compound 11, 5 mg/kg): 10 days
- Mean Survival Days (Observed for 25 days) ([3]; Intravenous, 5 mg/kg): 16 ± 1.5 days
- Mean Survival Days (Observed for 25 days) ([3]; Intravenous, listed as compound 11, 5 mg/kg): 16 days
- Mean Survival Days (Observed for 25 days) ([3]; Per oral): 7 ± .6 days
- Mean Survival Days (Observed for 25 days) ([3]; Subcutaneous, 5 mg/kg): 14 ± 1.2 days
- Mean Survival Days (Observed for 25 days) ([3]; Subcutaneous, listed as compound 11, 5 mg/kg): 14 days
- Stage of parasite growth arrest [2]: arrested after 48 hours at the trophozoite stage
- Parasites observed to be dead [2]: around 70%
- IC50 [2, 10]: 1.3 ± 0.1 µM
- MPE index, hot plate latency assay [4]: less latency in comparison to other derivatives

SMILES: O=C(NCc1ccc(C(F)(F)F)cc1)c1sc2ccccc2c1Br [Compound 7, N-(4-trifluorobenzyl)-3-bromobenzo[b]thiophene-2-carboxamide]
- IC50 ([1]; Inhibition of PfENR (IC50 μM)): 0.463 ± 0.1 µM
- Relative efficacy in the route of administration study [3]: comparative activity to compound 6
- Mean Survival Days (Observed for 25 days) ([3]; Intraperitoneal): 21 ± 1.3 days
- Mean Survival Days (Observed for 25 days) ([3]; Intravenous): 24 ± 2.1 days
- Mean Survival Days (Observed for 25 days) ([3]; Per oral): 11 ± 0.9 days
- Mean Survival Days (Observed for 25 days) ([3]; Subcutaneous): 15 ± 1.2 days
- Stage of parasite growth arrest [2]: arrested at the trophozoite stage
- Parasites observed to be dead [2]: ~90%
- IC50 [2, 11]: 1.18 ± 0.2 µM
- Ki [5]: 86.1 nM
- Binding behaviour from progress curves ([5]; inhibitor 0-750 nM): slow tight binding behaviour
- Isomerization rate constant (k5 * 10^−2) (s^−1) ([5]; purified PfENR, progress curves): 1.65 ± .023 10^−2 s^−1
- koff ([5]; read-out: Dissociation rate constant (k6* 10^−3) (s^−1)): 0.0069 ± 3e-07 s⁻¹
- Anti-nociceptive response, tail flick latency assay [6]: better anti-nociceptive response than the Ibuprofen

SMILES: O=C(NCCc1ccccc1)c1sc2ccccc2c1Br [Compound 8, 3-bromo-N-(2-phenylethyl)-benzo[b]thiophene-2-carboxamide]
- IC50 [1, 9]: 54.98 ± 0.42 µM
- IC50 [2, 10]: 2.46 ± 0.7 µM
- Analgesic activity compared with Ibuprofen, hot plate [4]: potent analgesic activity at much lower concentration than Ibuprofen
- Mechanical hyperalgesia, paw withdrawal threshold [7]: significantly reversed the mechanical hyperalgesia
- Anti-nociceptive response, tail flick latency assay [6]: better anti-nociceptive response than the Ibuprofen

SMILES: Oc1cc(Cl)ccc1Oc1ccc(Cl)cc1Cl [Triclosan, reference compound]
- IC50 [2, 11]: 0.8 ± 0.1 µM
- IC50 [8]: 6800 nM

SMILES: O=C(O)c1sc2ccccc2c1Br [Compound 1]
- IC50 [1, 9]: 1.68 ± 0.045 µM
- IC50 [2, 10]: 2.1 ± 0.4 µM

SMILES: C=CCN(Cc1ccc(F)cc1)C(=O)c1sc2ccccc2c1Br [Compound 10, 3-bromo-N-(4-fluorobenzyl)-N-(prop-2-en-1-yl)-benzo[b]thiophene-2-carboxamide]
- IC50 [1, 9]: 51.98 ± 0.43 µM
- Mean Survival Days (Observed for 25 days) ([3]; Intraperitoneal): 11 ± 0.8 days
- Mean Survival Days (Observed for 25 days) ([3]; Intravenous, 5 mg/kg): 15 days and 15 ± 0.7 days
- Mean Survival Days (Observed for 25 days) ([3]; Per oral): 7 ± 1.2 days
- Mean Survival Days (Observed for 25 days) ([3]; Subcutaneous): 12 ± 1.6 days
- Stage of parasite growth arrest [2]: arrested after 48 hours at the trophozoite stage
- Parasites observed to be dead [2]: 40%
- IC50 [2, 10]: 2.93 ± 1.2 µM
- MPE index, hot plate latency assay [4]: less latency in comparison to other derivatives

SMILES: CCN(CC)CCCC(C)Nc1ccnc2cc(Cl)ccc12 (centres unmarked) [Chloroquine, reference compound]
- Relative efficacy in the route of administration study [3]: more effective via intravenous and subcutaneous routes compared to oral administration
- Mean Survival Days (Observed for 25 days) ([3]; Intraperitoneal): 20 ± 1.5 days
- Mean Survival Days (Observed for 25 days) ([3]; Intravenous): 25 ± 2.1 days
- Mean Survival Days (Observed for 25 days) ([3]; Per oral): 17 ± 1.4 days
- Mean Survival Days (Observed for 25 days) ([3]; Subcutaneous): 21 ± 1.7 days

SMILES: CC(C)Cc1ccc(C(C)C(=O)O)cc1 (centres unmarked) [Ibuprofen, reference compound]
- Anti-nociceptive response, hot plate latency assay ([4]; 50 mg/kg b. wt., 60 minutes post administration): better anti-nociceptive effect compared to other NSAIDs
- Anti-nociceptive response, hot plate latency assay ([4]; 30 minutes post administration, wistar rats): better anti-nociceptive drug as compared to other NSAIDs

SMILES: O=C(NCc1cccc2ccccc12)c1sc2ccccc2c1Br [Compound 9, 3-bromo-N-(naphthalen-1-ylmethyl)-benzo[b]thiophene-2-carboxamide]
- IC50 [1, 9]: 52.56 ± 0.33 µM
- IC50 [2, 10]: 2.45 ± 0.9 µM
- Anti-nociceptive response, tail flick latency assay [6]: better anti-nociceptive response than the Ibuprofen

SMILES: O=C(NCc1ccccc1)c1sc2ccccc2c1Br [Compound 4, N-benzyl-3-bromobenzo[b]thiophene-2-carboxamide]
- IC50 [1, 9]: 0.51 µM and 0.501 µM
- IC50 [2, 10]: 2 ± 0.5 µM
- Analgesic activity compared with Ibuprofen, hot plate [4]: potent analgesic activity at much lower concentration than Ibuprofen
- melting point: 115 to 117 °C
- Mechanical hyperalgesia, paw withdrawal threshold [7]: significantly reversed the mechanical hyperalgesia
- Anti-nociceptive response, tail flick latency assay [6]: better anti-nociceptive response than the Ibuprofen

— US20120016014A1, “BENZOTHIOPHENE CARBOXAMIDE COMPOUNDS, COMPOSITION AND APPLICATIONS THEREOF” (INDIAN INSTITUTE OF SCIENCE, priority 2010, published 2012)
